Publication PMC12691742, “Anti-Cancer Outcome of Glucocorticoid Receptor Transrepression by Synephrine Derivatives in Hematological Malignancies” (International Journal of Molecular Sciences, 2025)
Like-named read-outs stand apart in the source and are kept apart here.

What was measured:
[1] = test system: Rankl, Mmp9, Tsc2, Trap, Bglap mRNA expression in bone tissue; assay: Glucocorticoid-induced osteoporosis model: Q-PCR of marker genes in bone tissue; type: in vivo, mice; conditions: 5 weeks; Dex 20 mg/kg, 10S-E2 10 mg/kg
Procedure: (A) H&E bone staining and quantification of cortical bone thickness. (B) Q-PCR analysis of Rankl, Mmp9, Tsc2, Trap, and Bglap mRNA expression in bone tissue. […] (C) H&E skin staining and quantification of dermal adipose thickness (50 images per treatment group of 10 animals). Statistically significant differences compared to the control: * p < 0.05, ** p < 0.01.
Total RNA isolation from cell cultures and murine bones, reverse transcription, and Q-PCR were performed as described in [36]. […] Results were normalized to the expression of the housekeeping RPL27 и Rpl27 genes. The experiments were performed in triplicate.
The protocol for the experiment was approved by the local N.N. Blokhin National Medical Research Center Ethics Committee and corresponded to the guidelines for the welfare and use of animals in cancer research adopted by The United Kingdom Coordinating Committee on Cancer Prevention Research. […] Body weight was recorded twice a week for toxicity control.

[2] = test system: primary lymphoblasts from pediatric patients with acute lymphoblastic leukemia; assay: Resazurin cytotoxicity assay in primary lymphoblasts; type: cell-based; conditions: Homo sapiens
Text: Peripheral blood samples were collected from 1–10-year-old pediatric patients with newly diagnosed ALL in the acute phase of the disease or from adult healthy volunteers at N.N. Blokhin National Research Center of Oncology. The Ethical Committee of the N.N. Blokhin National Research Center of Oncology approved this study, and written informed consents were provided. […] were isolated by centrifugation with Ficoll-Isopaque (“Paneco”, Russia) and then cultured in the RPMI-1640 media (“Paneco”, Russia) supplemented with 20% FBS (“Biowest”, France), 2 mM L-glutamine, 0.5 ME/mL penicillin and 0.5 µg/mL streptomycin (“Paneco”, Russia) and 10 mg/L phytohaemagglutinin (“Paneco”, Moscow, Russia).
Isolated PBMCs were seeded into 96-well plates (2 × 10^6 cells/well) and treated with 10S-E2 at a wide range of concentrations (2–200 µM). Cell viability was analyzed after 24 h of incubation, assessing metabolic activity with the addition of 0.177 mg/mL of resazurin at 8–10 h before the end of the incubation. Fluorescence intensity was evaluated using a Fluoroskan FL microplate fluorimeter (“Thermo Scientific”, Waltham, MA, USA). The IC50 values were determined using GraphPad Prism (Ver.7.0) software. The experiments were performed in triplicate.

[3] = test system: NF-kB activity in Granta cells; assay: NF-kB.Luc reporter assay in Granta cells; type: cell-based; conditions: 5 h, 10S-E2 1 µM
Procedure: We analyzed GR TR function using an NF-kB.Luc reporter assay with the irritating inflammatory agent phorbol 13-acetate 12-myristate (TPA) as an inducer of NF-kB signaling and positive control.
Figure 4 Effects of synephrine derivatives on GR transrepression in Granta lymphoma and K562 leukemia cells. (A) K562 and Granta cells stably infected with the lentiviruses bearing the NF-kB luciferase reporter. Cells were incubated for 5 h with the solvent (control), TPA (5 ng/mL), 4S-C2 (10 µM), 8S-E3 (10 µM), 10S-E2 (1 µM), or 13S-G2 (1 µM). Luciferase activity was determined as described in the Materials and Methods section. (B) IL1-α and IL6 mRNA expression in K562 and Granta cells. Q-PCR results were normalized to the expression of the housekeeping gene RPL27 and are presented as the fold change compared to the control. The mean ± SD was calculated for three individual samples/condition (n = 3). Statistically significant differences compared to the control: * p < 0.05, ** p < 0.01.
Lentiviral stocks were generated using the lentiviral expression vector NF-kB. Luc was encoded with Firefly Luciferase reporters with the NF-kB-responsive promoter of minimal CMV promoter as a control (“System Bioscience”, Moutain View, CA, USA), along with packing plasmids GAG, REV, and VSVg. HEK-293T cells were transfected with the abovementioned plasmids using TurboFect reagent (“Thermo Scientific”, Waltham, MA, USA) according to the manufacturer’s protocol. […] The infection efficiency exceeded 90% (tracked by GFP fluorescence).
Cells (10^4 cells/well in a 24-well plate), stably expressing Firefly Luciferase under the NF-kB promoter, were treated for 5 h with TPA (12-O-tetradecanoylphorbol-13-acetate, Boston, MA, USA, 10 ng/mL), 4S-C2 (10 µM), 8S-E3 (10 µM), 10S-E2 (1 µM), 13S-G2 (1 µM), or the vehicle. Luciferase activity was measured as described using a commercial Luciferase Assay (“Promega”, Madison, WI, USA) and Luminometer TD 20/20 (“Turner Design Instruments”, San Jose, CA, USA). […]

SMILES: CCCCCCNCC(O)c1ccc(OCc2ccccc2)cc1 (stereo not drawn) [10S-E2, 1-[4-(benzyloxy)phenyl]-2-(hexylamino)ethanol]
- Mmp9 mRNA expression in bone tissue [1]: significantly downregulated
- Rankl mRNA expression in bone tissue [1]: significantly downregulated
- Trap mRNA expression in bone tissue [1]: significantly downregulated
- Tsc2 mRNA expression in bone tissue [1]: significantly downregulated
- IC50 ([2]; 24 h, patient code 3, 24 h, read-out: IC50 of cytotoxic effect): 40.9 ± 3.12 µM
- IC50 ([2]; 24 h, patient code 4, 24 h, read-out: IC50 of cytotoxic effect): 43.2 ± 9.48 µM
- IC50 ([2]; 24 h, patient code 7, 24 h, read-out: IC50 of cytotoxic effect): 43 ± 0.71 µM
- IC50 ([2]; 24 h, patient code 8, 24 h, read-out: IC50 of cytotoxic effect): 60.6 ± 0.97 µM
- IC50 ([2]; 24 h, patient code 10, 24 h, read-out: IC50 of cytotoxic effect): 71.3 ± 5.59 µM
- IC50 ([2]; 24 h, patient code 12, 24 h, read-out: IC50 of cytotoxic effect): 75.7 ± 4.63 µM
- IC50 ([2]; 24 h, patient code 20, 24 h, read-out: IC50 of cytotoxic effect): 64.2 ± 0.55 µM
- IC50 ([2]; 24 h, patient code 21, 24 h, read-out: IC50 of cytotoxic effect): 49.4 ± 1.95 µM
- IC50 ([2]; 24 h, patient code 23, 24 h, read-out: IC50 of cytotoxic effect): 55.2 ± 2.25 µM
- IC50 ([2]; 24 h, patient code 24, 24 h, read-out: IC50 of cytotoxic effect): 70.3 ± 2.54 µM
- IC50 ([2]; 24 h, patient code 25, 24 h, read-out: IC50 of cytotoxic effect): 80.3 ± 4.09 µM
- IC50 ([2]; 24 h, patient code 30, 24 h, read-out: IC50 of cytotoxic effect): 52.4 ± 0.07 µM
- IC50 ([2]; 24 h, patient code 31, 24 h, read-out: IC50 of cytotoxic effect): 63.2 ± 1.42 µM
- IC50 ([2]; 24 h, patient code 33, 24 h, read-out: IC50 of cytotoxic effect): 67.6 ± 4.02 µM
- IC50 ([2]; 24 h, patient code 34, 24 h, read-out: IC50 of cytotoxic effect): 55 ± 1.91 µM
- IC50 ([2]; 24 h, patient code 35, 24 h, read-out: IC50 of cytotoxic effect): 65.9 ± 0.27 µM
- IC50 ([2]; 24 h, patient code 37, 24 h, read-out: IC50 of cytotoxic effect): 69.8 ± 3.66 µM
- IC50 ([2]; 24 h, patient code 39, 24 h, read-out: IC50 of cytotoxic effect): 71.3 ± 2.59 µM
- IC50 ([2]; 24 h, patient code 46, 24 h, read-out: IC50 of cytotoxic effect): 71.5 ± 2.08 µM
- IC50 ([2]; primary lymphoblast samples from 19 patients diagnosed with ALL, read-out: IC50 of cytotoxic effect, range over samples): 40 to 70 µM
- effect on NF-kB activity ([3]; 4S-C2 10 µM): not statistically significant
- inhibition of luciferase activity (NF-kB) [3]: 15%
